In US9556165B2 (priority 2012, dated 2017):
In brackets after ≈: the same amount, converted by molar mass. Like-named read-outs stand apart in the source and are kept apart here.

Assays:
Assay type in all cases: cell-based
[1] = system: C. freundii K21/3034; experiment: MIC determination, broth microdilution (CLSI); details: for MIC: Citrobacter freundii, K21/3034, strain 4
[2] = system: P. aeruginosa PAO1; experiment: MIC determination, broth microdilution (CLSI); details: for MIC: Pseudomonas aeruginosa, PAO1, strain 6
[3] = system: S. pneumoniae 113; experiment: MIC determination, broth microdilution (CLSI); details: broth microdilution; for MIC: Streptococcus pneumoniae, 113, strain 13, read-out: MIC strain 13 (S. pneumoniae 113)
[4] = system: K. pneumoniae 60; experiment: MIC determination, broth microdilution (CLSI); details: for MIC: Klebsiella pneumoniae, 60, strain 2
[5] = system: S. aureus 133; experiment: MIC determination, broth microdilution (CLSI)
[6] = system: E. coli ATCC25922; experiment: MIC determination, broth microdilution (CLSI); details: for MIC: Escherichia coli, ATCC25922, strain 1
[7] = system: E. coli J62-TEM-3; experiment: MIC determination, broth microdilution (CLSI); details: Escherichia coli, J62TEM3, read-out: MIC strain 18 (E. coli J62-TEM-3), strain 18; broth microdilution
[8] = system: C. perfringens DSM756; experiment: microbe, parasite or virus in culture; details: Clostridium perfringens, DSM756, read-out: MIC strain 16 (C. perfringens DSM756), strain 16; broth microdilution
[9] = system: H. influenzae ATCC 49247; experiment: MIC determination, broth microdilution (CLSI); details: broth microdilution; for MIC: Haemophilus influenzae, ATCC49247, strain 12, read-out: MIC strain 12 (H. influenzae ATCC 49247)
[10] = system: P. aeruginosa 2297 (AmpC wt); experiment: MIC determination, broth microdilution (CLSI); details: for MIC: Pseudomonas aeruginosa, strain 7
[11] = system: M. morganii 126/3048; experiment: MIC determination, broth microdilution (CLSI); details: for MIC: Morganella morganii, 126/3048, strain 5
[12] = system: P. aeruginosa 2297-con (AmpC derepressed); experiment: MIC determination, broth microdilution (CLSI); details: for MIC: Pseudomonas aeruginosa, read-out: strain 8 MIC, strain 8
[13] = system: A. baumannii ATCC15308; experiment: MIC determination, broth microdilution (CLSI); details: for MIC: Acinetobacter baumannii, ATCC15308, strain 9
[14] = system: S. maltophilia ICB7569; experiment: MIC determination, broth microdilution (CLSI); details: for MIC: Stenotrophomonas maltophilia, ICB7569, strain 10
[15] = system: E. coli J62; experiment: MIC determination, broth microdilution (CLSI); details: broth microdilution; for MIC: Escherichia coli, J62, strain 17, read-out: MIC strain 17 (E. coli J62)
[16] = system: B. fragilis 6688; experiment: MIC determination, broth microdilution (CLSI); details: Bacteroides fragilis, 6688, strain 15; broth microdilution; read-out: MIC strain 15 (B. fragilis 6688)
[17] = system: E. cloacae 34654; experiment: MIC determination, broth microdilution (CLSI); details: for MIC: Enterobacter cloacae, 34654, strain 3
[18] = system: Bacteria; experiment: MIC determination in combination with β-lactamase inhibitors (constant 4 μg/mL)
[19] = Staphylococcus aureus, 133, strain 11, read-out: strain 11 MIC
[20] = Staphylococcus aureus, 133, strain 14, broth microdilution, read-out: MIC strain 14 (S. aureus 133)

Row | Compound | MIC [1] [µg/mL] | MIC [2] [µg/mL] | MIC [3] [µg/mL] | MIC [4] [µg/mL] | MIC [5, 19] [µg/mL] | MIC [5, 20] [µg/mL] | MIC [6] [µg/mL] | MIC [7] [µg/mL] | MIC [8] [µg/mL] | MIC [9] [µg/mL] | MIC [10] [µg/mL] | MIC [11] [µg/mL] | MIC [12] [µg/mL] | MIC [13] [µg/mL] | MIC [14] [µg/mL] | MIC [15] [µg/mL] | MIC [16] [µg/mL] | MIC strain 19 (E. coli J62-TEM-3 + 4 μg/mL clavulanic acid) [18] | MIC strain 20 (E. coli J62-TEM-3 + 4 μg/mL sulbactam) [18] | MIC strain 21 (E. coli J62-TEM-3 + 4 μg/mL tazobactam) [18] | also measured
1 | CC1(C)[C@H](NC(=O)/C(=N\O[C@@H](COc2ccc(C(=N)NCC3CCCCN3)cc2)C(=O)O)c2csc(N)n2)C(=O)N1OS(=O)(=O)O (stereo partly drawn) [Example 99, (2S)-2-({[(1Z)-1-(2-Amino-1,3-thiazol-4-yl)-2-{[(3S)-2,2-dimethyl-4-oxo-1-(sulfooxy)-azetidin-3-yl]amino}-2-oxoethylidene]amino}oxy)-3-{4-[N-(piperidin-2-ylmethyl)carbamimidoyl]phenoxy}propanoic acid] | 0.125 (≈ 0.183 µM) | 2 (≈ 2.93 µM) | 0.5 (≈ 0.732 µM) | 0.25 (≈ 0.366 µM) | ≤ 0.063 | 32 (≈ 46.9 µM) | 0.125 (≈ 0.183 µM) | 4 (≈ 5.86 µM) | 0.5 (≈ 0.732 µM) | ≤ 0.063 | 2 (≈ 2.93 µM) | ≤ 0.063 | 2 (≈ 2.93 µM) | 2 (≈ 2.93 µM) | 4 (≈ 5.86 µM) | 0.25 (≈ 0.366 µM) | 8 (≈ 11.7 µM) | 0.125 µg/mL | 0.125 µg/mL | 0.25 µg/mL | MIC [17]: 0.25 µg/mL (≈ 0.366 µM)
2 | CC1(C)[C@H](NC(=O)/C(=N\OCCOc2ccc(C(=N)NC(CN)CN)cc2)c2csc(N)n2)C(=O)N1OS(=O)(=O)O [Example 84, (2Z)-2-(2-Amino-1,3-thiazol-4-yl)-2-[(2-{4-[N-(1,3-diaminopropan-2-yl)carbamimidoyl]phenoxy}ethoxy)imino]-N-[(3S)-2,2-dimethyl-4-oxo-1-(sulfooxy)azetidin-3-yl]ethanamide] | ≤ 0.063 | 1 (≈ 1.63 µM) | ≤ 0.063 | 0.125 (≈ 0.204 µM) | ≤ 0.063 | 2 (≈ 3.26 µM) | ≤ 0.063 | 4 (≈ 6.52 µM) | 2 (≈ 3.26 µM) | ≤ 0.063 | 2 (≈ 3.26 µM) | 0.25 (≈ 0.407 µM) | 2 (≈ 3.26 µM) | 1 (≈ 1.63 µM) | 32 (≈ 52.1 µM) | 0.125 (≈ 0.204 µM) | 4 (≈ 6.52 µM) | ≦0.063 mg/L | 0.125 µg/mL | 0.125 µg/mL | MIC [17]: 0.125 µg/mL (≈ 0.204 µM)
3 | CC1(C)[C@H](NC(=O)/C(=N\O[C@@H](COc2ccc(C(=N)N[C@@H]3CCCNC3)cc2)C(=O)O)c2csc(N)n2)C(=O)N1OS(=O)(=O)O [Example 88, (2S)-2-({[(1Z)-1-(2-Amino-1,3-thiazol-4-yl)-2-{[(3S)-2,2-dimethyl-4-oxo-1-(sulfooxy)azetidin-3-yl]amino}-2-oxoethylidene]amino}oxy)-3-(4-{N-[(3R)-piperidin-3-yl]carbamimidoyl}phenoxy)propanoic acid] | ≤ 0.063 | 1 (≈ 1.5 µM) | 0.5 (≈ 0.748 µM) | 0.125 (≈ 0.187 µM) | – | 32 (≈ 47.9 µM) | ≤ 0.063 | 2 (≈ 2.99 µM) | 0.5 (≈ 0.748 µM) | ≤ 0.063 | 1 (≈ 1.5 µM) | ≤ 0.063 | 1 (≈ 1.5 µM) | 2 (≈ 2.99 µM) | 4 (≈ 5.98 µM) | 0.125 (≈ 0.187 µM) | 8 (≈ 12 µM) | ≦0.063 mg/L | ≦0.063 mg/L | ≦0.063 mg/L | MIC [17]: ≤ 0.063 µg/mL
4 | CC1(C)[C@H](NC(=O)/C(=N\OCCOc2ccc(C(=N)NCC(=O)O)cc2)c2csc(N)n2)C(=O)N1OS(=O)(=O)O [Example 73, N-[{4-[2-({[(1Z)-1-(2-Amino-1,3-thiazol-4-yl)-2-{[(3S)-2,2-dimethyl-4-oxo-1-(sulfo-oxy)azetidin-3-yl]amino}-2-oxoethylidene]amino}oxy)ethoxy]phenyl}(imino)methyl]glycine] | 0.5 (≈ 0.834 µM) | 16 (≈ 26.7 µM) | ≤ 0.063 | 0.5 (≈ 0.834 µM) | ≤ 0.063 | 32 (≈ 53.4 µM) | 0.5 (≈ 0.834 µM) | 32 (≈ 53.4 µM) | 4 (≈ 6.67 µM) | 0.25 (≈ 0.417 µM) | 32 (≈ 53.4 µM) | 0.5 (≈ 0.834 µM) | 32 (≈ 53.4 µM) | 16 (≈ 26.7 µM) | 32 (≈ 53.4 µM) | 1 (≈ 1.67 µM) | 8 (≈ 13.3 µM) | 0.5 µg/mL | 0.5 µg/mL | 1 µg/mL | MIC [17]: 0.5 µg/mL (≈ 0.834 µM)
5 | CC1(C)[C@H](NC(=O)/C(=N\OC(COc2ccc(C(=N)NCCN)cc2)C(=O)O)c2csc(N)n2)C(=O)N1OS(=O)(=O)O (mixture of isomers) [Example 44A, (2R and 2S)-3-{4-[N-(2-Aminoethyl)carbamimidoyl]phenoxy}-2-({[(1Z)-1-(2-amino-1,3-thiazol-4-yl)-2-{[(3S)-2,2-dimethyl-4-oxo-1-(sulfooxy)azetidin-3-yl]amino}-2-oxoethylidene]amino}oxy)propanoic acid] | – | – | – | – | ≤ 0.063 | 32 | – | 2 | 1 | – | – | – | – | – | – | – | 8 | ≦0.063 mg/L | ≦0.063 mg/L | ≦0.063 mg/L | strain 4 MIC ([1]; strain 4): ≦0.063 mg/L; strain 6 MIC ([2]; strain 6): 1 µg/mL; MIC strain 13 (S. pneumoniae 113) ([3]; strain 13): 0.5 µg/mL; strain 2 MIC ([4]; strain 2): ≦0.063 mg/L; strain 1 MIC ([6]; strain 1): ≦0.063 mg/L; MIC strain 12 (H. influenzae ATCC 49247) ([9]; strain 12): ≦0.063 mg/L; strain 7 MIC [10]: 2 µg/mL; strain 5 MIC ([11]; strain 5): 0.125 µg/mL; strain 8 MIC ([12]; strain 8): 1 µg/mL; strain 9 MIC ([13]; strain 9): 2 µg/mL; strain 10 MIC ([14]; strain 10): 2 µg/mL; MIC strain 17 (E. coli J62) ([15]; strain 17): 0.125 µg/mL; strain 3 MIC ([17]; strain 3): 0.125 µg/mL
6 | CC1(C)[C@H](NC(=O)/C(=N\OCCOc2ccc(C(=N)N[C@H](CN)CO)cc2)c2csc(N)n2)C(=O)N1OS(=O)(=O)O [Example 85, (2Z)-2-{[2-(4-{N-[(2R)-1-Amino-3-hydroxypropan-2-yl]carbamimidoyl}phenoxy)ethoxy]imino}-2-(2-amino-1,3-thiazol-4-yl)-N-[(3S)-2,2-dimethyl-4-oxo-1-(sulfooxy)azetidin-3-yl]ethanamide] | 0.25 (≈ 0.407 µM) | 4 (≈ 6.51 µM) | ≤ 0.063 | 0.5 (≈ 0.813 µM) | ≤ 0.063 | 8 (≈ 13 µM) | 0.25 (≈ 0.407 µM) | 8 (≈ 13 µM) | 4 (≈ 6.51 µM) | ≤ 0.063 | 8 (≈ 13 µM) | 0.25 (≈ 0.407 µM) | 8 (≈ 13 µM) | 2 (≈ 3.25 µM) | 32 (≈ 52.1 µM) | 0.5 (≈ 0.813 µM) | 4 (≈ 6.51 µM) | 0.25 µg/mL | 0.25 µg/mL | 0.5 µg/mL | MIC [17]: 0.5 µg/mL (≈ 0.813 µM)
